What was measured:
Type in all cases: in vivo
Alopecurus myosuroides [1] = test: Pre-emergence herbicidal effect against ALOMY; conditions: 1280 g/ha, visual score after 3 weeks, 100% = plants have died, 0% = like control plants
Summary of the method: (§1)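 Pre-emergence soil-surface spray, WP/EC formulations in water at 600 to 800 L/ha plus 0.2% wetting agent, sandy loam, greenhouse, visual % damage vs untreated at 3 weeks (100% = plants dead, 0% = like control).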

Digitaria sanguinalis [2] = test: Pre-emergence herbicidal effect against DIGSA; conditions: 1280 g/ha, visual score after 3 weeks, 100% = plants have died, 0% = like control plants
Summary of the method: as §1

Echinochloa crus-galli [3] = test: Pre-emergence herbicidal effect against ECHCG; conditions: 1280 g/ha, visual score after 3 weeks, 100% = plants have died, 0% = like control plants
Summary of the method: as §1

Lolium rigidum [4] = test: Pre-emergence herbicidal effect against LOLRI; conditions: 1280 g/ha, visual score after 3 weeks, 100% = plants have died, 0% = like control plants
Summary of the method: as §1

Poa annua [5] = test: Pre-emergence herbicidal effect against POAAN; conditions: 1280 g/ha, visual score after 3 weeks, 100% = plants have died, 0% = like control plants
Summary of the method: as §1

Setaria viridis [6] = test: Pre-emergence herbicidal effect against SETVI; conditions: 1280 g/ha, visual score after 3 weeks, 100% = plants have died, 0% = like control plants
Summary of the method: as §1

Abutylon threophrasti [7] = test: Pre-emergence herbicidal effect against ABUTH; conditions: 1280 g/ha, visual score after 3 weeks, 100% = plants have died, 0% = like control plants
Description: (§2) 1. Pre-emergence herbicidal effect and crop plant compatibility Seeds of monocotyledonous and dicotyledonous weed plants and crop plants are laid out in sandy loam soil in wood-fibre pots and covered with soil. The compounds of the invention, formulated in the form of wettable powders (WP) or as emulsion concentrates (EC), are then applied to the surface of the covering soil as aqueous suspension or emulsion at a water application rate equating to 600 to 800 L/ha with addition of 0.2% wetting agent. After the treatment, the pots are placed in a greenhouse and kept under good growth conditions for the trial plants. The damage to the test plants is scored visually after a test period of 3 weeks by comparison with untreated controls (herbicidal activity in percent (%): 100% activity=the plants have died, 0% activity=like control plants). [table]

Bassia scoparia [8] = test: Pre-emergence herbicidal effect against KCHSC; conditions: 1280 g/ha, visual score after 3 weeks, 100% = plants have died, 0% = like control plants
Description: as §2

[9] = tested on: Tripleurospermum inodorum; test: Pre-emergence herbicidal effect against MATIN; conditions: 1280 g/ha, visual score after 3 weeks, 100% = plants have died, 0% = like control plants
Summary of the method: as §1

Stellaria media [10] = test: Pre-emergence herbicidal effect against STEME; conditions: 1280 g/ha, visual score after 3 weeks, 100% = plants have died, 0% = like control plants
Summary of the method: as §1

Veronica persica [11] = test: Pre-emergence herbicidal effect against VERPE; conditions: 1280 g/ha, visual score after 3 weeks, 100% = plants have died, 0% = like control plants
Summary of the method: as §1

Alopecurus myosuroides [12] = test: Post-emergence herbicidal effect against ALOMY; conditions: 1280 g/ha, visual score after about 3 weeks, 100% = plants have died, 0% = like control plants
Summary of the method: (§3)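 Visual score, % action vs untreated controls (100% = plants dead, 0% = like controls), read ~3 wk after spraying. Greenhouse plants in sandy loam, one-leaf stage, 2–3 wk post-sowing. WP/EC as aqueous spray, 600–800 l/ha, 0.2% wetting agent.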

Digitaria sanguinalis [13] = test: Post-emergence herbicidal effect against DIGSA; conditions: 1280 g/ha, visual score after about 3 weeks, 100% = plants have died, 0% = like control plants
Summary of the method: as §3

Echinochloa crus-galli [14] = test: Post-emergence herbicidal effect against ECHCG; conditions: 1280 g/ha, visual score after about 3 weeks, 100% = plants have died, 0% = like control plants
Summary of the method: as §3

Lolium rigidum [15] = test: Post-emergence herbicidal effect against LOLRI; conditions: 1280 g/ha, visual score after about 3 weeks, 100% = plants have died, 0% = like control plants
Protocol: [table] 2. Post-emergence herbicidal effect and crop plant compatibility Seeds of monocotyledonous and dicotyledonous weed and crop plants are laid out in sandy loam soil in wood-fibre pots, covered with soil and cultivated in a greenhouse under good growth conditions. 2 to 3 weeks after sowing, the test plants are treated at the one-leaf stage. The compounds of the invention, formulated in the form of wettable powders (WP) or as emulsion concentrates (EC), are then sprayed onto the green parts of the plants as aqueous suspension or emulsion at a water application rate equating to 600 to 800 l/ha with addition of 0.2% wetting agent. After the test plants have been left to stand in the greenhouse under optimal growth conditions for about 3 weeks, the action of the preparations is assessed visually in comparison to untreated controls (herbicidal action in percent (%): 100% activity=the plants have died, 0% activity=like control plants).

Poa annua [16] = test: Post-emergence herbicidal effect against POAAN; conditions: 1280 g/ha, visual assessment about 3 weeks after treatment, 100% = plants have died, 0% = like control plants
Summary of the method: as §3

Setaria viridis [17] = test: Post-emergence herbicidal effect against SETVI; conditions: 1280 g/ha, visual assessment about 3 weeks after treatment, 100% = plants have died, 0% = like control plants
Summary of the method: as §3

Abutylon threophrasti [18] = test: Post-emergence herbicidal effect against ABUTH; conditions: 1280 g/ha, visual assessment about 3 weeks after treatment, 100% = plants have died, 0% = like control plants
Summary of the method: as §3

Bassia scoparia [19] = test: Post-emergence herbicidal effect against KCHSC; conditions: 1280 g/ha, visual assessment about 3 weeks after treatment, 100% = plants have died, 0% = like control plants
Summary of the method: as §3

[20] = tested on: Tripleurospermum inodorum; test: Post-emergence herbicidal effect against MATIN; conditions: 1280 g/ha, visual assessment about 3 weeks after treatment, 100% = plants have died, 0% = like control plants
Summary of the method: as §3

Stellaria media [21] = test: Post-emergence herbicidal effect against STEME; conditions: 1280 g/ha, visual assessment about 3 weeks after treatment, 100% = plants have died, 0% = like control plants
Summary of the method: as §3

Veronica persica [22] = test: Post-emergence herbicidal effect against VERPE; conditions: 1280 g/ha, visual assessment about 3 weeks after treatment, 100% = plants have died, 0% = like control plants
Summary of the method: as §3

Amaranthus retroflexus [23] = test: Pre-emergence herbicidal effect against AMARE; conditions: 1280 g/ha, visual score after 3 weeks, 100% = plants have died, 0% = like control plants
Summary of the method: as §1

Amaranthus retroflexus [24] = test: Post-emergence herbicidal effect against AMARE; conditions: 1280 g/ha, visual assessment about 3 weeks after treatment, 100% = plants have died, 0% = like control plants
Summary of the method: as §3

| Structure (SMILES) | Pre-emergence action against ALOMY (Alopecurus myosuroides [1]) [%] | Pre-emergence action against DIGSA (Digitaria sanguinalis [2]) [%] | Pre-emergence action against ECHCG (Echinochloa crus-galli [3]) [%] | Pre-emergence action against LOLRI (Lolium rigidum [4]) [%] | Pre-emergence action against POAAN (Poa annua [5]) [%] | Pre-emergence action against SETVI (Setaria viridis [6]) [%] | Pre-emergence action against ABUTH (Abutylon threophrasti [7]) [%] | Pre-emergence action against KCHSC (Bassia scoparia [8]) [%] | Pre-emergence action against MATIN [9] [%] | Pre-emergence action against STEME (Stellaria media [10]) [%] | Pre-emergence action against VERPE (Veronica persica [11]) [%] | Post-emergence action against ALOMY (Alopecurus myosuroides [12]) [%] | Post-emergence action against DIGSA (Digitaria sanguinalis [13]) [%] | Post-emergence action against ECHCG (Echinochloa crus-galli [14]) [%] | Post-emergence action against LOLRI (Lolium rigidum [15]) [%] | Post-emergence action against POAAN (Poa annua [16]) [%] | Post-emergence action against SETVI (Setaria viridis [17]) [%] | Post-emergence action against ABUTH (Abutylon threophrasti [18]) [%] | Post-emergence action against KCHSC (Bassia scoparia [19]) [%] | Post-emergence action against MATIN [20] [%] | also measured |
| --- | --- | --- | --- | --- | --- | --- | --- | --- | --- | --- | --- | --- | --- | --- | --- | --- | --- | --- | --- | --- | --- |
| O=C(O)CSc1nn(-c2ccccc2F)c(-c2ccc(F)c(F)c2)c1Cl [Example I-014] | 100 | 100 | 90 | 100 | 100 | 100 | 100 | 90 | 100 | 100 | 100 | 100 | 100 | 90 | 90 | 100 | 90 | 90 | 100 | 100 | Post-emergence action against STEME (Stellaria media [21]): 100%; Post-emergence action against VERPE (Veronica persica [22]): 90% |
| O=C(O)CSc1nn(-c2ccccc2F)c(-c2cncc(F)c2)c1Br [II-005] | 100 | 100 | 100 | 100 | 100 | 100 | 90 | 90 | 100 | 100 | 100 | 100 | 100 | 100 | 90 | 100 | 100 | 90 | 90 | 100 | Pre-emergence action against AMARE (Amaranthus retroflexus [23]): 100%; Post-emergence action against AMARE (Amaranthus retroflexus [24]): 90%; Post-emergence action against STEME (Stellaria media [21]): 100%; Post-emergence action against VERPE (Veronica persica [22]): 100% |
